7 compounds from PubChem BioAssay AID1259411 (Chemical Carcinogenesis Research Information System (CCRIS), 2018) can be followed below.

This series relates to rodent carcinogenicity bioassays, tumor incidence. Put plainly: CCRIS carcinogenicity studies. Put shortly: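 Archive of carcinogenicity, mutagenicity, tumor promotion and tumor inhibition results drawn from journals, NCI reports and other sources, expert-reviewed; covers 1985-2011 and is no longer updated.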

The source made the active and inactive calls. No rule for the calls is given here.

`O[C@@H]1[C@@H]2O[C@@H]2C=C[C@H]1O`: the carcinogen call runs as follows: (Species: MOUSE, Strain/Sex: SWISS/FEMALE, Route: INTRAPERITONEAL, Dose: 0, 2.7, 13.7 UMOL ADMINISTERED AS 3 UNEQUAL DOSES (1/7, 2/7, AND 4/7 OF THE TOTAL DOSE) OVER A 2-WK PERIOD (STUDY DURATI, Dose: 0, 2.7, 13.7 UMOL ADMINISTERED AS 3 UNEQUAL DOSES (1/7, 2/7, AND 4/7 OF THE TOTAL DOSE) OVER A 2-WK PERIOD (STUDY DURATI, Tumor Site: Type of Lesion: LUNG: ADENOMA) “active; positive”; (Species: MOUSE, Strain/Sex: SWISS/FEMALE, Route: INTRAPERITONEAL, Dose: 0, 13.7 UMOL ADMINISTERED AS 3 UNEQUAL DOSES (1/7, 2/7, AND 4/7 OF THE TOTAL DOSE) OVER A 2-WK PERIOD (STUDY DURATION: 2, Tumor Site: Type of Lesion: LUNG: ADENOMA) “active; positive”; (Species: MOUSE, Strain/Sex: SWISS/MALE, Route: INTRAPERITONEAL, Dose: 0, 2.7, 13.7 UMOL ADMINISTERED AS 3 UNEQUAL DOSES (1/7, 2/7, AND 4/7 OF THE TOTAL DOSE) OVER A 2-WK PERIOD (STUDY DURATI, Dose: 0, 2.7, 13.7 UMOL ADMINISTERED AS 3 UNEQUAL DOSES (1/7, 2/7, AND 4/7 OF THE TOTAL DOSE) OVER A 2-WK PERIOD (STUDY DURATI, Tumor Site: Type of Lesion: LUNG: ADENOMA) “active; positive”; (Species: MOUSE, Strain/Sex: SWISS/MALE, Route: INTRAPERITONEAL, Dose: 0, 13.7 UMOL ADMINISTERED AS 3 UNEQUAL DOSES (1/7, 2/7, AND 4/7 OF THE TOTAL DOSE) OVER A 2-WK PERIOD (STUDY DURATION: 2, Tumor Site: Type of Lesion: LUNG: ADENOMA) “active; positive”.
Consider `Cc1cn([C@H]2C[C@H](N=[N+]=[N-])[C@@H](CO)O2)c(=O)[nH]c1=O`, for which the carcinogen call runs as follows: (Species: MOUSE, Strain/Sex: B6C3F1/FEMALE, Route: GAVAGE, Dose: 0, 30, 60, 120 MG/KG BW IN 0.5% METHYLCELLULOSE ADMINISTERED IN TWO EQUAL DOSES DAILY 5 D/WK FOR 105 WK (STUDY DURATION:, Dose: 0, 30, 60, 120 MG/KG BW IN 0.5% METHYLCELLULOSE ADMINISTERED IN TWO EQUAL DOSES DAILY 5 D/WK FOR 105 WK (STUDY DURATION:, Tumor Site: Type of Lesion: VAGINA: SQUAMOUS CELL CARCINOMA, SQUAMOUS CELL PAPILLOMA OR CARCINOMA) “active; positive”; (Species: MOUSE, Strain/Sex: B6C3F1/MALE, Route: GAVAGE, Dose: 0, 30, 60, 120 MG/KG BW IN 0.5% METHYLCELLULOSE ADMINISTERED IN TWO EQUAL DOSES DAILY 5 D/WK FOR 105 WK (STUDY DURATION:, Dose: 0, 30, 60, 120 MG/KG BW IN 0.5% METHYLCELLULOSE ADMINISTERED IN TWO EQUAL DOSES DAILY 5 D/WK FOR 105 WK (STUDY DURATION:, Tumor Site: Type of Lesion: KIDNEY: RENAL TUBULE ADENOMA, RENAL TUBULE CARCINOMA, HARDERIAN GLAND: ADENOMA, ADENOMA OR CARCINOMA) “equivocal”; (Species: MOUSE, Strain/Sex: CD-1/FEMALE, Route: GAVAGE, Dose: 0, 30, 60, 120 MG/KG/D ON DAY 91 OF STUDY DOSES LOWERED TO 20, 30, 40 MG/KG (STUDY DURATION: 22 MO), Dose: 0, 30, 60, 120 MG/KG/D ON DAY 91 OF STUDY DOSES LOWERED TO 20, 30, 40 MG/KG (STUDY DURATION: 22 MO), Tumor Site: Type of Lesion: VAGINA: SQUAMOUS CELL CARCINOMA) “active; positive”; (Species: MOUSE, Strain/Sex: CD-1/FEMALE, Route: INTRAVAGINAL, Dose: 0, 5, 20 MG/ML IN 0.9% SALINE ADMINISTERED AT 0.2 ML 2/D (STUDY DURATION: 24 MO), Dose: 0, 5, 20 MG/ML IN 0.9% SALINE ADMINISTERED AT 0.2 ML 2/D (STUDY DURATION: 24 MO), Tumor Site: Type of Lesion: VAGINA: SQUAMOUS CELL CARCINOMA) “active; positive”; (Species: MOUSE, Strain/Sex: CD-1/MALE, Route: GAVAGE, Dose: 0, 30, 60, 120 MG/KG/D ON DAY 91 OF STUDY DOSES LOWERED TO 20, 30, 40 MG/KG/D (STUDY DURATION: 19 MO), Dose: 0, 30, 60, 120 MG/KG/D ON DAY 91 OF STUDY DOSES LOWERED TO 20, 30, 40 MG/KG/D (STUDY DURATION: 19 MO)) “inactive; negative”; (Species: Mouse, Strain/Sex: Swiss (CD-1)/Female F1 Generation, Route: In utero, Dose: 0, 50, 100, 200, 300 mg/kg by gavage to F0 generation females 7 d/wk for 29-39 d (delivery day): females mated with unex, Dose: 0, 50, 100, 200, 300 mg/kg by gavage to F0 generation females 7 d/wk for 29-39 d (delivery day): females mated with unex) “inactive; negative; decreased litter size and fertility rates at two highest doses”. In addition, the carcinogen call runs as follows: (Species: Mouse, Strain/Sex: Swiss (CD-1)/Male F1 Generation, Route: In utero, Dose: 0, 50, 100, 200, 300 mg/kg by gavage to F0 generation females 7 d/wk for 29-39 d (delivery day): females mated with unex, Dose: 0, 50, 100, 200, 300 mg/kg by gavage to F0 generation females 7 d/wk for 29-39 d (delivery day): females mated with unex, Tumor Site: Type of Lesion: Lung, Alveolar/Bronchiolar Carcinoma (5/50, 11/50, 6/50, 11/37, 8/32), Alveolar/Bronchiolar adenoma or carcinoma (14/50,, Tumor Site: Type of Lesion: Lung, Alveolar/Bronchiolar Carcinoma (5/50, 11/50, 6/50, 11/37, 8/32), Alveolar/Bronchiolar adenoma or carcinoma (14/50) “active; positive; decreased litter size and fertility rates at two highest doses”; (Species: RAT, Strain/Sex: STRAIN-CD/MALE, Route: GAVAGE, Dose: 0, 80, 220, 600 MG/KG/D, HIGH DOSE LOWERED TO 450 MG/KG THEN 300 MG/KG ON DAYS 91 AND 278, RESPECTIVELY (STUDY DURATION:, Dose: 0, 80, 220, 600 MG/KG/D, HIGH DOSE LOWERED TO 450 MG/KG THEN 300 MG/KG ON DAYS 91 AND 278, RESPECTIVELY (STUDY DURATION:) “inactive; negative”.
For `CN=C(NCc1cnc(Cl)s1)N[N+](=O)[O-]`, the carcinogen call runs as follows: (Species: Rat, Strain/Sex: ???/Female (60/group), Route: Oral, Dose: 0, 150, 500, 1,500, 3,000 ppm in diet for 2 yr, Dose: 0, 150, 500, 1,500, 3,000 ppm in diet for 2 yr) “inactive; negative (study details not given in source; purity 95.2%)”; (Species: Rat, Strain/Sex: ???/Male (60/group), Route: Oral, Dose: 0, 150, 500, 1,500, 3,000 ppm in diet for 2 yr, Dose: 0, 150, 500, 1,500, 3,000 ppm in diet for 2 yr) “inactive; negative (study details not given in source; purity 95.2%)”.
As for `ONc1ccc2ccccc2c1`, the carcinogen call is, setting by setting: (Species: DOG, Strain/Sex: BEAGLE, Route: INTRAVESICULAR, Dose: 5 MG IN DMSO EVERY TWO WK FOR 30 MO, Tumor Site: Type of Lesion: URINARY BLADDER: PAPILLARY TRANSITIONAL CELL CARCINOMA (INVASIVE)) “active; positive”; (Species: MOUSE, Strain/Sex: BALB, Route: SUBCUTANEOUS, Dose: 100 UG IN AQUEOUS GELATIN 1/D FOR 5 D, Tumor Site: Type of Lesion: LUNG: ADENOMA) “active; positive”; (Species: MOUSE, Strain/Sex: SWISS/FEMALE, Route: SUBCUTANEOUS, Dose: 100 UG IN GELATIN ON D 1, 3 AND 5 OF LIFE, Tumor Site: Type of Lesion: LUNG: ADENOMA, CARCINOMA) “active; positive”; (Species: MOUSE, Strain/Sex: SWISS/MALE, Route: SUBCUTANEOUS, Dose: 100 UG IN GELATIN ON D 1, 3 AND 5 OF LIFE, Tumor Site: Type of Lesion: LIVER: HEPATOMA) “active; positive”; (Species: RAT, Strain/Sex: STRAIN-CB/MALE, Route: INTRAPERITONEAL, Dose: 50 MG/KG IN ARACHIS OIL 2/WK FOR 3 MO, Tumor Site: Type of Lesion: PERITONEAL CAVITY: SARCOMA, CARCINOMA) “active; positive”.
With `CN(N=O)C(=O)c1c(N(C)N=O)ncn1C`, the carcinogen call (Species: RAT, Strain/Sex: BD-IX/MALE, FEMALE, Route: GAVAGE, Dose: 0, 6, 60 MG/KG 2/WK AFTER 2 WK HIGH DOSE REDUCED TO 30 MG/KG FOR DURATION OF STUDY (STUDY DURATION: LIFETIME), Dose: 0, 6, 60 MG/KG 2/WK AFTER 2 WK HIGH DOSE REDUCED TO 30 MG/KG FOR DURATION OF STUDY (STUDY DURATION: LIFETIME), Tumor Site: Type of Lesion: FORESTOMACH: TUMOR) is “active; positive”.
Consider `Cc1cc(=O)oc2c1cc(C)c1occ(C)c12`, for which the carcinogen call (Species: MOUSE, Strain/Sex: C3H/HEN/FEMALE, Route: DERMAL, Dose: 0, 250 UG IN 70% ETHANOL 3/WK FOR 48 WK (STUDY DURATION: 68 WK)) is “inactive; negative”.
In the case of `CCCC1O[C@@H]2C[C@H]3[C@@H]4CCC5=CC(=O)C=C[C@]5(C)[C@H]4[C@@H](O)C[C@]3(C)[C@]2(C(=O)CO)O1` (some centres not stated), the carcinogen call (Species: RAT, Strain/Sex: SPRAGUE-DAWLEY/MALE, Route: ORAL, Dose: 0, 5 UG/ML IN DRINKING WATER FOR AN AVERAGE DAILY DOSE OF 46.6 UG/KG FOR 104 WK (STUDY DURATION: 104 WK), Tumor Site: Type of Lesion: LIVER: HEPATOCELLULAR ADENOMA OR CARCINOMA) was “active; positive”.
